Source: patent US20120277165A1, “METHODS OF MODULATING FUCOSYLATION OF GLYCOPROTEINS” (priority 2009, published 2012)

What was measured:
[1] = tested on: Lec 13.6 A cells (CHO cells deficient in GDP-mannose 4,6, dehydratase) expressing CTLA4Ig; test: GDP-fucose levels in CHO cells (nucleotide sugar extraction, RP chromatography, UV); assay type: cell-based, Chinese hamster; settings: relative to wild-type CHO = 100
Procedure: (§1) The levels of GDP-fucose levels and the degree of protein fucosylation on glycoproteins were analyzed for three different CHO cell lines expressing a representative secreted protein product (CTLA4Ig): CHO cells that are deficient in the enzyme GDP-mannose 4,6, dehydratase (Lec 13.6 A); CHO cells that have lowered levels of GDP-fucose (Lec 2); and wild-type CHO cells. […] Cells were harvested, and snap frozen, while culture supernatant was harvested and CTLA4Ig harvested by protein A purification for subsequent analysis. Cells were then subjected to nucleotide sugar extraction using standard methods. In short with chloroform:methanol:water (2:4:1), the pellets discarded and the resulting extraction dried down. The dried material was subsequently resuspended in 500 ul of 10% butanol in water and then extracted with 1 ml of 90% butanol in water. […] For quantification, sugar-nucletides were resolved with RP chromatography.
(§2) Protein products were isolated from culture supernatant by protein A affinity, and subjected to PNGase F treatment to remove glycans. The resulting glycans were isolated by PGC chromatography and subsequently analyzed by MALDI mass spectrometry. The % fucosylation was determined by determining the ratio of the glycans with or without core fucosylation. GDP-fucose levels are indicated in peak area as detected by UV.

[2] = tested on: Lec 13.6 A cells (CHO cells deficient in GDP-mannose 4,6, dehydratase) expressing CTLA4Ig; test: Degree of core fucosylation of glycans on secreted CTLA4Ig (PNGase F, MALDI mass spectrometry); assay type: cell-based, Chinese hamster; settings: CTLA4Ig from Lec 13.6A cells
Procedure: as §1, §2

[3] = 0.01 mM exogenous fucose in culture media
[4] = 1 mM exogenous fucose in culture media

C[C@H](O)[C@@H](O)[C@@H](O)[C@H](O)C=O [fucose]
% of Parental GDP-fucose [1, 3]: 62.5% | % of Parental GDP-fucose [1, 4]: 270% | % Fucosylated Glycans [2, 3]: 45% | % Fucosylated Glycans [2, 4]: 100%
